According to patent US10161929B2, “Theranostics platform and methods of use” (Sanford Burnham Prebys Medical Discovery Institute, priority 2012, dated 2018):

Experiments:
Format in all cases: cell-based, human
[1] = test system: Fibroblasts obtained from a muscular dystrophy patient; assay: Laminin binding assay (high content screen) in fibroblasts from a muscular dystrophy patient; details: for hit in the laminin binding screen (normalizes fibroblast laminin binding; at least 20% activity compared with controls): 10 μm, duplicate, 48 hours, 384-well plates, anti-laminin staining
Experimental: (§1) Fibroblasts obtained from a muscular dystrophy patient were seeded at 3000 cells per well in 384-well plates and treated in duplicate at 10 μm with individual compounds from the drug/nutraceutical library. After 48 hours in culture conditions, the cells were exposed to serum free media containing 0.1% BSA and 10 ug/ml laminin from Engelbreth-Holm-Swarm murine sarcoma basement membrane for a period of 2 hours. Cells were then fixed with 4% paraformaldehyde and stained with DAPI and a laminin-specific antibody, followed by a fluorescently labeled secondary antibody directed against the laminin specific antibody. The plates were then scanned using an Opera high content confocal microscopy screening system (PerkinElmer) at 20× magnification with separate fluorescent exposures, utilizing a UV light source and a 561 nm laser.
(§2) Image analysis was performed to quantify levels of laminin staining using a customized algorithm written with Acapella software (Perkin Elmer). The cytoplasm was defined using DAPI staining as a mask, and the average cytoplasmic intensity of fluorescence per cell was calculated on the basis of at least six random fields captured per well.
A compound in the drug/nutraceutical library was considered to normalize the level of fibroblast laminin binding if the compound scored at least 20% activity compared with controls. Fibroblasts from a healthy individual, or from patient cells treated with Trichostatin A at 2 uM were used as positive controls.
Trichostatin A, SAHA, and Givinostat (another HDAC inhibitor in the same class as Trichostatin A and SAHA) were further tested in an eight-point dose-response assay (at a range of 20-0.02 μm, at three fold dilutions) in triplicate.

[2] = test system: fibroblasts from the CMD-FKRP patient; assay: Laminin binding, fibroblasts from FKRP deficient patients (FIG. 6, FIG. 9)
Source text: FIG. 6. Fibroblasts were obtained from CMD patients with either low (CMD-FKRP) laminin binding, mid-range laminin binding (LGMD/CMD-FKRP), or closer to normal (LGMD-FKRP) laminin binding. […] Laminin was labeled with rabbit anti-laminin antibodies. Nuclei are stained with DAPI.
(§3) FIG. 9. Fibroblasts were taken from an FKRP deficient CMD patient and a POMT1 deficient CMD patient. […] Laminin is labeled with rabbit anti-laminin antibodies. Nuclei are stained with DAPI.
Fibroblasts obtained from a muscular dystrophy patient were seeded at 3000 cells per well in 384-well plates and treated in duplicate at 10 μm with individual compounds from the drug/nutraceutical library. After 48 hours in culture conditions, the cells were exposed to serum free media containing 0.1% BSA and 10 ug/ml laminin from Engelbreth-Holm-Swarm murine sarcoma basement membrane for a period of 2 hours. […]
as §2

[3] = test system: fibroblasts from the CMD-POMT1 patient; assay: Laminin binding, fibroblasts from a POMT1 deficient CMD patient (FIG. 9)
Experimental: as §3, §1, §2

[4] = test system: Immortalized fibroblasts from a CMD patient; assay: Laminin binding, immortalized fibroblasts from a CMD patient (FIG. 5); details: dose response curve
Experimental: as §1, with “FIG. 5. […] A dose response curve for Givinostat was prepared measuring laminin staining intensity at various concentrations of the compound. Laminin was labeled with rabbit anti-laminin antibodies. Nuclei are stained with DAPI. Fibroblasts” for “Fibroblasts”, “laser. Image analysis was performed to quantify levels of laminin staining using a customized algorithm written with Acapella software (Perkin Elmer). The cytoplasm was defined using DAPI staining as a mask, and the average cytoplasmic intensity of fluorescence per cell was calculated on the basis of at least six random fields captured per well.” for “laser.”

With CC(/C=C/C(=O)NO)=C\[C@@H](C)C(=O)c1ccc(N(C)C)cc1 [Trichostatin A] the “hit in the laminin binding screen (normalizes fibroblast laminin binding; at least 20% activity compared with controls)” value [1] was “identified as hits”, the laminin binding ([2]; fibroblasts from the CMD-FKRP patient, FIG. 9) was “increased laminin binding” and the laminin binding ([2]; fibroblasts with low (CMD-FKRP), mid-range (LGMD/CMD-FKRP) or closer to normal (LGMD-FKRP) laminin binding, FIG. 6) was “increased laminin binding”. The laminin binding [3] was “did not result in visibly increased laminin binding”.
For CCN(CC)Cc1ccc2cc(COC(=O)Nc3ccc(C(=O)NO)cc3)ccc2c1 [Givinostat], the “levels of laminin binding (laminin staining intensity)” value [4] was “increased levels of laminin binding”.
With O=C(CCCCCCC(=O)Nc1ccccc1)NO [SAHA] the “hit in the laminin binding screen (normalizes fibroblast laminin binding; at least 20% activity compared with controls)” value [1] was “identified as hits” and the “laminin binding of patient's fibroblasts after treatment” value ([1]; fibroblasts from a CMD-affected patient, compared with unaffected sibling, rabbit anti-laminin antibodies, FIG. 4) was “normalized to the levels of the patient's unaffected sibling”.
